Reference: ChEMBL document CHEMBL1201862, “PubChem BioAssay data set” (2004)
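Where inhibition never reached the appropriate level, the endpoint shown equals the highest concentration tested. Otherwise, values were interpolated linearly from a five-concentration, 48-hour dose response in 96-well plates. GI50 marks 50% less growth.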 Activity calls are given as the source filed them. No stated cut-off is given here; in the data, active = GI50 up to about 1.1 µM and inactive = higher.

How the values were obtained:
Experiment in all cases: NCI tumour cell line growth inhibition, 48 h
T47D = system: T47D
HOP-62 = system: HOP-62
MOLT-4 = system: MOLT-4
KM12 = system: KM12
786-0 = system: 786-0
SK-MEL-2 = system: SK-MEL-2
NCI-H522 = system: NCI-H522
COLO 205 = system: COLO 205
HT-29 = system: HT-29
A549 = system: A549
SF-295 = system: SF-295
CCRF-CEM = system: CCRF-CEM
HOP-92 = system: HOP-92
U-251 = system: U-251
OVCAR-3 = system: OVCAR-3
PC-3 = system: PC-3
OVCAR-8 = system: OVCAR-8
IGROV-1 = system: IGROV-1
Malme-3M = system: Malme-3M
RXF 393 = system: RXF 393
SK-MEL-5 = system: SK-MEL-5
CAKI-1 = system: CAKI-1
K562 = system: K562
SK-OV-3 = system: SK-OV-3
TK-10 = system: TK-10
OVCAR-5 = system: OVCAR-5
NCI-H226 = system: NCI-H226
MCF7 = system: MCF7
RPMI-8226 = system: RPMI-8226
MDA-MB-231 = system: MDA-MB-231
UO-31 = system: UO-31
NCI-H23 = system: NCI-H23
EKVX = system: EKVX
SR = system: SR
LOX IMVI = system: LOX IMVI
M14 = system: M14
SN12C = system: SN12C
MDA-MB-435 = system: MDA-MB-435
HCT-116 = system: HCT-116
NCI/ADR-RES = system: NCI/ADR-RES
ACHN = system: ACHN
SW-620 = system: SW-620
SF-268 = system: SF-268
NCI-H460 = system: NCI-H460
SF-539 = system: SF-539
DU-145 = system: DU-145
UACC-257 = system: UACC-257
UACC-62 = system: UACC-62
BT-549 = system: BT-549
MDA-N = system: MDA-N
HL-60 = system: HL-60
OVCAR-4 = system: OVCAR-4
HCT-15 = system: HCT-15
HCC 2998 = system: HCC 2998
SK-MEL-28 = system: SK-MEL-28
SNB-19 = system: SNB-19
A498 = system: A498
SNB-75 = system: SNB-75
Hs-578T = system: Hs-578T

`Cc1c(N2C(=O)C(Cl)C2c2ccc(Cl)cc2)c(=O)n(-c2ccccc2)n1C` (configuration not stated) was tested, and the GI50 (T47D) was 88.3 µM (inactive), the GI50 (HOP-62) was 42 µM (inactive) and the GI50 (MOLT-4) was 31.4 µM (inactive). For the same compound, the GI50 (KM12) was 27.7 µM (inactive), the GI50 (786-0) was 33.1 µM (inactive) and the GI50 (SK-MEL-2) was > 100 µM (inactive). For the same compound, the GI50 (NCI-H522) was 46.3 µM (inactive), the GI50 (COLO 205) was > 100 µM (inactive) and the GI50 (HT-29) was > 100 µM (inactive). The GI50 (A549) was > 100 µM (inactive), the GI50 (SF-295) was > 100 µM (inactive) and the GI50 (CCRF-CEM) was 23.1 µM (inactive). The GI50 (HOP-92) was 60.5 µM (inactive), the GI50 (U-251) was 35.3 µM (inactive) and the GI50 (OVCAR-3) was 75.3 µM (inactive). The GI50 (PC-3) was > 100 µM (inactive), the GI50 (OVCAR-8) was > 100 µM (inactive) and the GI50 (IGROV-1) was 27.1 µM (inactive). For the same compound, the GI50 (Malme-3M) was > 100 µM (inactive), the GI50 (RXF 393) was > 100 µM (inactive) and the GI50 (SK-MEL-5) was > 100 µM (inactive). For the same compound, the GI50 (CAKI-1) was > 100 µM (inactive), the GI50 (K562) was 45.5 µM (inactive) and the GI50 (SK-OV-3) was > 100 µM (inactive). The GI50 (TK-10) was > 100 µM (inactive), the GI50 (OVCAR-5) was > 100 µM (inactive) and the GI50 (NCI-H226) was > 100 µM (inactive). For the same compound, the GI50 (MCF7) was 41.6 µM (inactive), the GI50 (RPMI-8226) was 16 µM (inactive) and the GI50 (MDA-MB-231) was > 100 µM (inactive). For the same compound, the GI50 (UO-31) was > 100 µM (inactive), the GI50 (NCI-H23) was 23.9 µM (inactive) and the GI50 (EKVX) was 71 µM (inactive). The GI50 (SR) was 26.4 µM (inactive), the GI50 (LOX IMVI) was 31 µM (inactive) and the GI50 (M14) was 62.7 µM (inactive). For the same compound, the GI50 (SN12C) was > 100 µM (inactive), the GI50 (MDA-MB-435) was 23.4 µM (inactive) and the GI50 (HCT-116) was 18.8 µM (inactive). The GI50 (NCI/ADR-RES) was > 100 µM (inactive), the GI50 (ACHN) was 23.7 µM (inactive) and the GI50 (SW-620) was 60.8 µM (inactive). The GI50 (SF-268) was > 100 µM (inactive), the GI50 (NCI-H460) was > 100 µM (inactive) and the GI50 (SF-539) was 36.1 µM (inactive). For the same compound, the GI50 (DU-145) was > 100 µM (inactive), the GI50 (UACC-257) was 14.2 µM (inactive) and the GI50 (UACC-62) was 75.2 µM (inactive). The GI50 (BT-549) was > 100 µM (inactive), the GI50 (MDA-N) was 30 µM (inactive) and the GI50 (HL-60) was > 100 µM (inactive). For the same compound, the GI50 (OVCAR-4) was > 100 µM (inactive).
`Cc1ccc(-n2cc(-c3ccc(Cl)cc3)c3c2N=CN2N=C(c4cccs4)NC32)cc1` (configuration not stated) was tested, and the GI50 (HOP-62) was 15.7 µM (inactive), the GI50 (HCT-15) was 51.8 µM and the GI50 (786-0) was 4.28 µM (inactive). The GI50 (SK-MEL-2) was 13.1 µM (inactive), the GI50 (NCI-H522) was 21.6 µM (inactive) and the GI50 (COLO 205) was 6.71 µM (inactive). For the same compound, the GI50 (HT-29) was 23 µM (inactive), the GI50 (A549) was 21.9 µM (inactive) and the GI50 (SF-295) was 9.18 µM (inactive). The GI50 (CCRF-CEM) was 11.2 µM (inactive), the GI50 (HOP-92) was 7.64 µM (inactive) and the GI50 (HCC 2998) was 57 µM (inactive). The GI50 (U-251) was 4.81 µM (inactive), the GI50 (OVCAR-3) was 9.73 µM (inactive) and the GI50 (PC-3) was 16.5 µM (inactive). For the same compound, the GI50 (OVCAR-8) was 6.46 µM (inactive), the GI50 (IGROV-1) was 14.2 µM (inactive) and the GI50 (Malme-3M) was 38.4 µM (inactive). The GI50 (RXF 393) was 12.4 µM (inactive), the GI50 (SK-MEL-5) was > 100 µM (inactive) and the GI50 (CAKI-1) was 16 µM (inactive). The GI50 (K562) was 11.7 µM (inactive), the GI50 (SK-OV-3) was 14.9 µM (inactive) and the GI50 (SK-MEL-28) was > 100 µM (inactive). For the same compound, the GI50 (TK-10) was 11.2 µM (inactive), the GI50 (OVCAR-5) was 11.1 µM (inactive) and the GI50 (NCI-H226) was 19.3 µM (inactive). For the same compound, the GI50 (MCF7) was 32.5 µM (inactive), the GI50 (SNB-19) was 17.9 µM (inactive) and the GI50 (MDA-MB-231) was 4.52 µM (inactive). For the same compound, the GI50 (UO-31) was 7.64 µM (inactive), the GI50 (NCI-H23) was 15.3 µM (inactive) and the GI50 (EKVX) was 18.1 µM (inactive). The GI50 (SR) was 7.64 µM (inactive), the GI50 (LOX IMVI) was 15.7 µM (inactive) and the GI50 (M14) was 18.7 µM (inactive). For the same compound, the GI50 (SN12C) was 10.1 µM (inactive), the GI50 (MDA-MB-435) was 38.7 µM (inactive) and the GI50 (HCT-116) was 5.13 µM (inactive). The GI50 (NCI/ADR-RES) was 9.68 µM (inactive), the GI50 (ACHN) was 5.07 µM (inactive) and the GI50 (SW-620) was 14.4 µM (inactive). For the same compound, the GI50 (SF-268) was 17.8 µM (inactive), the GI50 (NCI-H460) was 5.31 µM (inactive) and the GI50 (SF-539) was 16.2 µM (inactive). The GI50 (DU-145) was > 100 µM (inactive), the GI50 (UACC-257) was 38.9 µM (inactive) and the GI50 (UACC-62) was 23.2 µM (inactive). The GI50 (A498) was 14.7 µM (inactive), the GI50 (BT-549) was 20.1 µM (inactive) and the GI50 (MDA-N) was 26.8 µM (inactive). For the same compound, the GI50 (SNB-75) was 8.38 µM (inactive), the GI50 (HL-60) was 19.1 µM (inactive) and the GI50 (OVCAR-4) was 2.21 µM (inactive). The GI50 (Hs-578T) was 2.07 µM (inactive).
